Measurements published in patent US11603515B2, “Cell culture substrate, cancer cell aggregate and method for manufacturing same using said substrate, and drug screening method using said cancer cell aggregate” (NATIONAL UNIVERSITY CORPORATION HOKKAIDO UNIVERSITY, priority 2017, dated 2023).

Tested on: microtumor consisting of PCI-55 cells
Test: Evaluation of anticancer agent using microtumors (morphological change and molecular expression)
Type: cell-based, human
Protocol: A total of six types of cell culture substrates with Roughness (+) or Roughness (−) of 30, 95, or 300 μm in spot diameter were used to culture human pancreatic ductal adenocarcinoma cell line PCI-55. Immediately before culturing the cells, each of the cell culture substrates was immersed in distilled water for about 30 minutes to detach the polyparaxylene layer. Then, the cell culture substrate was washed using water, sterilized with 70% ethanol, and air dried. The cell culture substrate was then fixed to the inner bottom of a culture dish (Asnol petri dish, AS ONE) with 40 mm in diameter and 13.5 mm in depth via Vaseline. After adding DMEM and washing the cell culture substrate for three times, 3×10^6 of PCI-55 cells suspended in 3 mL of DMEM were seeded on each cell culture substrate, and cultured at 37 degrees Celsius overnight to for 48 hours.
Morphological change in microtumors was observed, by adding nocodazole known as an anticancer agent with microtubule polymerization inhibitory activity to a culture medium of the microtumor consisting of PCI-55 cells formed on the cell culture substrate 1 in Example 2 so that the final concentration becomes 1 μM.

[1] = nocodazole 1 μM, 24 hours after treatment, fluorescence images (FIG. 49)

With COC(=O)Nc1nc2ccc(C(=O)c3cccs3)cc2[nH]1 [nocodazole] the “Cell-in-cell structure of the microtumor” value [1] was “destructed”, the “Membranous expression of α-tubulin in the microtumor” value [1] was “disappeared” and the “Release of cells from the inner microtumor” value [1] was “a number of viable cells were scattered so as to overflow from the inner microtumor”. The “Adhesion of microtumor to the spot on the cell culture substrate / morphology” value (nocodazole final concentration 1 μM, PCI-55 microtumor on cell culture substrate 1, time-lapse DIC (FIG. 48)) was “prevented from adhering to the spot on the cell culture substrate, and formed spheroidal morphology” and the “Accumulation of Annexin V on the surface of microtumor (dead cell phenotype)” value (nocodazole treatment, Annexin V and EthD time-lapse images (FIG. 50)) was “reduced the accumulation of Annexin V on the surface of microtumor”.
